Test results reported in the supplement of paper PMC10307832.

Tests used:
Test in all cases: relative viability (nuclei count vs DMSO), 5 days (fraction); higher = more cells survive
[1] = compound: CC(C)C[C@@H](C(=O)N[C@H](C(=O)OC1CCCC1)c1ccccc1)[C@H](O)C(=O)NO [Tosedostat] + Nc1nc2[nH]cc(CCc3ccc(C(=O)N[C@@H](CCC(=O)O)C(=O)O)cc3)c2c(=O)[nH]1 [Pemetrexed] (partner 0.2 µM)
How it was run: (§1)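 Nuclei were stained with Hoechst during a one-step fixation (final 0.05% Triton X-100, 1% formaldehyde, 1 ug/ml Hoechst) carried out 5 days after dosing, then counted on 4× images. The cells, lung cancer lines in 1536-well plates, had been dosed by pin tool the day after seeding with one drug alone or a fixed anchor-drug dose plus five library-drug doses (not always all listed) in √10 steps. Relative viability is the nuclei count in treated wells divided by that in vehicle wells, and each value is the median of duplicate plates.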

[2] = compound: CC1=NN=C(O1)C2=NN=C(C=C2)N3CCC(CC3)OC4=C(C=CC(=C4)F)Cl + COc1cccc2cc(-c3nc([C@H]4CC[C@H](C(=O)O)CC4)n4ncnc(N)c34)[nH]c12 [OSI-027] (partner 0.5 µM)
How it was run: as §1

[3] = compound: CC1=NN=C(O1)C2=NN=C(C=C2)N3CCC(CC3)OC4=C(C=CC(=C4)F)Cl + Nc1ncn([C@H]2C[C@H](O)[C@@H](CO)O2)c(=O)n1 [Decitabine] (partner 2 µM)
How it was run: as §1

[4] = compound: CC1=NN=C(O1)C2=NN=C(C=C2)N3CCC(CC3)OC4=C(C=CC(=C4)F)Cl + O=C(c1cc(Cc2n[nH]c(=O)c3ccccc23)ccc1F)N1CCN(C(=O)C2CC2)CC1 [Olaparib] (partner 8 µM)
How it was run: as §1

Row | Cell Line | relative viability ([1]; first compound 0.02 µM) | relative viability ([1]; first compound 0.06325 µM) | relative viability ([1]; first compound 0.2 µM) | relative viability ([1]; first compound 0.6325 µM) | relative viability ([1]; first compound 2 µM) | relative viability ([2]; first compound 0.253 µM) | relative viability ([2]; first compound 0.8 µM) | relative viability ([2]; first compound 2.53 µM) | relative viability ([2]; first compound 8 µM) | relative viability ([3]; first compound 0.253 µM) | relative viability ([3]; first compound 0.8 µM) | relative viability ([3]; first compound 2.53 µM) | relative viability ([3]; first compound 8 µM) | relative viability ([4]; first compound 0.253 µM) | relative viability ([4]; first compound 0.8 µM) | relative viability ([4]; first compound 2.53 µM) | relative viability ([4]; first compound 8 µM)
1 | SW 1573 | 0.972 | 0.856 | 0.899 | 0.777 | 1 | 0.643 | 0.52 | 0.562 | 0.4 | 0.517 | 0.471 | 0.482 | 0.378 | 0.524 | 0.519 | 0.426 | 0.412
2 | NCI-H1648 | 0.656 | 0.736 | 0.99 | 0.966 | 0.532 | 0.256 | 0.253 | 0.279 | 0.271 | 0.378 | 0.465 | 0.433 | 0.473 | 0.459 | 0.574 | 0.406 | 0.618
3 | A549 | – | – | – | – | – | – | – | – | – | 0.223 | 0.218 | 0.222 | 0.208 | 0.235 | 0.0638 | 0.409 | 0.163
4 | A-427 | 0.97 | 1.02 | 0.936 | 0.946 | 0.852 | 0.498 | – | 0.428 | 0.404 | 0.55 | 0.576 | 0.53 | 0.569 | 0.527 | 0.634 | 0.744 | 0.669
5 | NCI-H2009 | 1.07 | 0.998 | 1.07 | 0.977 | 1.1 | 0.673 | 0.618 | 0.605 | 0.564 | 0.322 | 0.304 | 0.311 | 0.268 | 0.363 | 0.39 | 0.421 | 0.375
6 | LCLC-97TM1 | 0.176 | 0.175 | 0.192 | 0.203 | 0.254 | 0.523 | 0.391 | 0.472 | 0.508 | 0.205 | – | 0.186 | 0.18 | 0.369 | – | 0.267 | 0.258
7 | NCI-H1792 | 0.92 | 0.884 | 0.838 | 0.935 | 0.658 | 0.547 | 0.587 | 0.686 | 0.731 | 0.396 | 0.507 | 0.558 | 0.442 | 0.264 | 0.376 | 0.337 | 0.364
8 | LCLC-103H | 0.507 | 0.522 | 0.533 | 0.494 | 0.57 | 0.372 | 0.426 | 0.426 | 0.385 | 0.491 | 0.694 | 0.552 | 0.435 | 0.512 | 0.509 | 0.514 | 0.465
9 | LOU-NH91 | 0.394 | 0.478 | 0.447 | 0.487 | 0.444 | 0.693 | 0.645 | 0.706 | 0.69 | – | 0.773 | 0.773 | 0.759 | – | 0.818 | 0.879 | 0.883
10 | BEN | 0.845 | 0.893 | 0.997 | 1.2 | 1.06 | 0.309 | 0.28 | 0.309 | 0.318 | 0.75 | 0.775 | 0.713 | 0.668 | 1.2 | 0.767 | 0.966 | 1.07
